pIC50: −log10 of the molar value.
What was measured:
SK-MEL-28 = experiment: Cytotoxicity against human SK-MEL-28 cells after 48 hrs by sulforhodamine B assay; format: functional; conditions: SK-MEL-28, 48 h
MDA-MB-231 = experiment: Cytotoxicity against human MDA-MB-231 cells after 48 hrs by sulforhodamine B assay; format: functional; conditions: MDA-MB-231, 48 h
[1] = Cytotoxicity against human UACC257 cells after 48 hrs by sulforhodamine B assay; format: functional; conditions: UACC-257, 48 h
RPMI-8226 = experiment: Cytotoxicity against human RPMI8226 cells after 48 hrs by sulforhodamine B assay; format: functional; conditions: RPMI-8226, 48 h
[2] = Cytotoxicity against human HCT15 cells after 48 hrs by sulforhodamine B assay; format: functional; conditions: HCT-15, 48 h
CAKI-1 = experiment: Cytotoxicity against human CAKI-1 cells after 48 hrs by sulforhodamine B assay; format: functional; conditions: CAKI-1, 48 h
CCRF-CEM = experiment: Cytotoxicity against human CCRF-CEM cells after 48 hrs by sulforhodamine B assay; format: functional
[3] = molecular target: T1, Signal transducer and activator of transcription 3 (Homo sapiens, UniProt P40763); experiment: Inhibition of SH2 domain of STAT3 (unknown origin) using (FITC)-GpYLPQTV as substrate at 30 uM preincubated for 15 mins before substrate addition measured after 90 mins by alphascreen based assay
DU-145 = experiment: Cytotoxicity against human DU145 cells after 48 hrs by sulforhodamine B assay; format: functional; conditions: DU-145, 48 h
[4] = Cytotoxicity against human Hs 578T cells after 48 hrs by sulforhodamine B assay; format: functional
[5] = molecular target: T1, Signal transducer and activator of transcription 3; experiment: Inhibition of SH2 domain of STAT3 (unknown origin) using (FITC)-GpYLPQTV as substrate preincubated for 15 mins before substrate addition measured after 90 mins by alphascreen based assay
NCI-H522 = experiment: Cytotoxicity against human NCI-H522 cells after 48 hrs by sulforhodamine B assay; format: functional; conditions: NCI-H522, 48 h
HCC 2998 = experiment: Cytotoxicity against human HCC2998 cells after 48 hrs by sulforhodamine B assay; format: functional; conditions: HCC 2998, 48 h
[6] = Cytotoxicity against human EKVX cells after 48 hrs by sulforhodamine B assay; format: functional
A549 = experiment: Cytotoxicity against human A549 cells after 48 hrs by sulforhodamine B assay; format: functional; conditions: A549, 48 h
HT-29 = experiment: Cytotoxicity against human HT-29 cells after 48 hrs by sulforhodamine B assay; format: functional; conditions: HT-29, 48 h
SK-MEL-2 = experiment: Cytotoxicity against human SK-MEL-2 cells after 48 hrs by sulforhodamine B assay; format: functional; conditions: SK-MEL-2, 48 h
[7] = molecular target: Signal transducer and activator of transcription 1-alpha/beta (Homo sapiens) (UniProt P42224); experiment: Inhibition of SH2 domain of STAT1 (unknown origin) using FITC-GpYDKPHVL as substrate at 30 uM preincubated for 15 mins before substrate addition measured after 90 mins by alphascreen based assay
[8] = molecular target: Growth factor receptor-bound protein 2 (Homo sapiens, UniProt P62993); experiment: Inhibition of SH2 domain of GRB2 (unknown origin) using FITC-PSpYVNVQN as substrate at 30 uM preincubated for 15 mins before substrate addition measured after 90 mins by alphascreen based assay
PC-3 = experiment: Cytotoxicity against human PC3 cells after 48 hrs by sulforhodamine B assay; format: functional; conditions: PC-3, 48 h
KM12 = experiment: Cytotoxicity against human KM12 cells after 48 hrs by sulforhodamine B assay; format: functional; conditions: KM12, 48 h
[9] = read-out: LC50 (the source's name)
[10] = read-out: pLC50 (the source's name) (converted)

T1 sequence (P40763 whole entry, the tested form may be a part): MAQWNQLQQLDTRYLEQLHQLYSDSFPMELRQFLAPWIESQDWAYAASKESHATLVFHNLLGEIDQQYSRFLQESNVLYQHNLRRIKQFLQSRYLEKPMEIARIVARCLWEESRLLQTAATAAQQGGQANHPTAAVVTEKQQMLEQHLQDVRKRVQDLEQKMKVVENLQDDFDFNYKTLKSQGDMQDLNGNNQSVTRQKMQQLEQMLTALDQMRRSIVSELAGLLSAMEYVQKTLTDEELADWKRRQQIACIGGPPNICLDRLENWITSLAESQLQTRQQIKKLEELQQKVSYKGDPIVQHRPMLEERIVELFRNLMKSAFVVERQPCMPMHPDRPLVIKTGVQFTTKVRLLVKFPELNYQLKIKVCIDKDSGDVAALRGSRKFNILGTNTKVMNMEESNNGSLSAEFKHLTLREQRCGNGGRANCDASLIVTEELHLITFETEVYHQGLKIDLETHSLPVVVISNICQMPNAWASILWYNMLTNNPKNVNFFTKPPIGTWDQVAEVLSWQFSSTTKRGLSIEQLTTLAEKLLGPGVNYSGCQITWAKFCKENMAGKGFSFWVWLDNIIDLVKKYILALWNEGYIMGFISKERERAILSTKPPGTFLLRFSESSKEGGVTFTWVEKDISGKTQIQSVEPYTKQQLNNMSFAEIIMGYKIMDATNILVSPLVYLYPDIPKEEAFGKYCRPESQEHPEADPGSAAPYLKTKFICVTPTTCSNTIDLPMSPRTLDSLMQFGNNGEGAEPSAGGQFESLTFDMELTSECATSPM
Sequence of Signal transducer and activator of transcription 1-alpha/beta (Homo sapiens) (P42224 whole entry, the tested form may be a part): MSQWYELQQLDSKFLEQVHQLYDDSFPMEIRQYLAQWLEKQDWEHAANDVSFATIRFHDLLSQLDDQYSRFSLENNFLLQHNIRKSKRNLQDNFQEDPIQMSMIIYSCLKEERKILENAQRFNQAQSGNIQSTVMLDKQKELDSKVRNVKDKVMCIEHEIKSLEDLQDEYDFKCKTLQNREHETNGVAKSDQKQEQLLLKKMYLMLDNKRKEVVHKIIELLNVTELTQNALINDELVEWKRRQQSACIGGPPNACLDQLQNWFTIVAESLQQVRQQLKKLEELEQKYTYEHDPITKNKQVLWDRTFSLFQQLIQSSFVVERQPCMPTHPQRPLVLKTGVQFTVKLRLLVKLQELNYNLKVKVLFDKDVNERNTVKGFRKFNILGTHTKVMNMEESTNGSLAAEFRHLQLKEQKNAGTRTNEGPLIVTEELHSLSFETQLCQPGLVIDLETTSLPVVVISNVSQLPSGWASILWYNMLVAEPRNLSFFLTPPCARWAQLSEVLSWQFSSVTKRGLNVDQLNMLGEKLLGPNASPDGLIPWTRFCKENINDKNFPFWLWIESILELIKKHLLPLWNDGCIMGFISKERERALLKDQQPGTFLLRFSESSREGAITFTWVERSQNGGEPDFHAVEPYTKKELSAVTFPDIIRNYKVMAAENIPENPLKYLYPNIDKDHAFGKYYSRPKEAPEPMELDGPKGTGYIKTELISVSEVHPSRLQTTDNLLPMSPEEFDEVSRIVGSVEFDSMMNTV
Sequence of Growth factor receptor-bound protein 2 (P62993 whole entry, looked up, the tested form may be a part): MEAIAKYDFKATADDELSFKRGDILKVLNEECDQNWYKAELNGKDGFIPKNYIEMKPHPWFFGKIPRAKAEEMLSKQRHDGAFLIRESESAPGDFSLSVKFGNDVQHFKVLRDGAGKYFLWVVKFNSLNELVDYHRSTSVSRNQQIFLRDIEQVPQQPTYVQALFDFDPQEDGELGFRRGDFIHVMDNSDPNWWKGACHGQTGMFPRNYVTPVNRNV

Work on `O=C(Nc1nonc1-c1ccc(Cl)cc1)c1ccc(C(F)(F)F)cc1` yielded a GI50 (SK-MEL-28; read-out: GI50) of 4.25 µM, an LC50 (SK-MEL-28; read-out: LC50) of over 100 µM and a TGI (SK-MEL-28; read-out: TGI) of over 100 µM. It also gave a GI50 (SK-MEL-28; read-out: pGI50 (converted)) of 4.27 µM, an LC50 (SK-MEL-28; read-out: pLC50 (converted)) of over 100 µM and a TGI (SK-MEL-28; read-out: pTGI) of over 100 µM. It also gave a GI50 (MDA-MB-231; read-out: GI50) of 2.79 µM, an LC50 (MDA-MB-231; read-out: LC50) of over 100 µM and a TGI (MDA-MB-231; read-out: TGI) of 7.59 µM. The GI50 (MDA-MB-231; read-out: pGI50 (converted)) was 2.82 µM, the LC50 (MDA-MB-231; read-out: pLC50 (converted)) was over 100 µM and the TGI (MDA-MB-231; read-out: pTGI (converted)) was 7.59 µM. The GI50 ([1]; read-out: GI50) was 2.17 µM, the LC50 (50% lethal concentration) ([1]; read-out: LC50) was over 100 µM and the TGI ([1]; read-out: TGI) was 9.02 µM. The GI50 ([1]; read-out: pGI50 (converted)) was 2.19 µM, the LC50 (50% lethal concentration) ([1]; read-out: pLC50 (converted)) was over 100 µM and the TGI ([1]; read-out: pTGI (converted)) was 9.12 µM. For the same molecule, the GI50 (RPMI-8226; read-out: GI50) was 1.05 µM, the CC50 (RPMI-8226; [9]) was over 100 µM and the TGI (RPMI-8226; read-out: TGI) was 5.89 µM. The GI50 (RPMI-8226; read-out: pGI50 (converted)) was 1.05 µM, the CC50 (RPMI-8226; [10]) was over 100 µM and the TGI (RPMI-8226; read-out: pTGI (converted)) was 5.89 µM. The GI50 ([2]; read-out: GI50) was 3.5 µM, the CC50 [2, 9] was over 100 µM and the TGI ([2]; read-out: TGI) was over 100 µM. For the same molecule, the GI50 ([2]; read-out: pGI50 (converted)) was 3.47 µM, the CC50 [2, 10] was over 100 µM and the TGI ([2]; read-out: pTGI) was over 100 µM. It also gave a GI50 (CAKI-1; read-out: GI50) of 1.9 µM, a CC50 (CAKI-1; [9]) of over 100 µM and a TGI (CAKI-1; read-out: TGI) of 7.59 µM. The GI50 (CAKI-1; read-out: pGI50 (converted)) was 1.91 µM, the CC50 (CAKI-1; [10]) was over 100 µM and the TGI (CAKI-1; read-out: pTGI (converted)) was 7.59 µM. For the same molecule, the GI50 (CCRF-CEM; read-out: GI50) was 0.842 µM, the CC50 (CCRF-CEM; [9]) was over 100 µM and the TGI (CCRF-CEM; read-out: TGI) was 10.7 µM. The GI50 (CCRF-CEM; read-out: pGI50 (converted)) was 0.851 µM, the CC50 (CCRF-CEM; [10]) was over 100 µM and the TGI (CCRF-CEM; read-out: pTGI (converted)) was 10.7 µM. For the same molecule, the inhibition [3] was 72%, the GI50 (DU-145; read-out: GI50) was 3.48 µM and the CC50 (DU-145; [9]) was over 100 µM. For the same molecule, the TGI (DU-145; read-out: TGI) was over 100 µM, the GI50 (DU-145; read-out: pGI50 (converted)) was 3.47 µM and the CC50 (DU-145; [10]) was over 100 µM. It also gave a TGI (DU-145; read-out: pTGI) of over 100 µM, a GI50 ([4]; read-out: GI50) of 2.53 µM and a CC50 [4, 9] of over 100 µM. It also gave a TGI ([4]; read-out: TGI) of over 100 µM, a GI50 ([4]; read-out: pGI50 (converted)) of 2.51 µM and a CC50 [4, 10] of over 100 µM. The TGI ([4]; read-out: pTGI) was over 100 µM, the pIC50 [5] was 4.75 and the inhibition [5] was “Dose-dependent effect”. The GI50 (NCI-H522; read-out: GI50) was 2.07 µM, the CC50 (NCI-H522; [9]) was over 100 µM and the TGI (NCI-H522; read-out: TGI) was 7.12 µM. For the same molecule, the GI50 (NCI-H522; read-out: pGI50 (converted)) was 2.09 µM, the CC50 (NCI-H522; [10]) was over 100 µM and the TGI (NCI-H522; read-out: pTGI (converted)) was 7.08 µM. For the same molecule, the GI50 (HCC 2998; read-out: GI50) was 3.63 µM, the CC50 (HCC 2998; [9]) was over 100 µM and the TGI (HCC 2998; read-out: TGI) was over 100 µM. For the same molecule, the GI50 (HCC 2998; read-out: pGI50 (converted)) was 3.63 µM, the CC50 (HCC 2998; [10]) was over 100 µM and the TGI (HCC 2998; read-out: pTGI) was over 100 µM. The GI50 ([6]; read-out: GI50) was 3.4 µM, the CC50 [6, 9] was over 100 µM and the TGI ([6]; read-out: TGI) was 33.6 µM. For the same molecule, the GI50 ([6]; read-out: pGI50 (converted)) was 3.39 µM, the CC50 [6, 10] was over 100 µM and the TGI ([6]; read-out: pTGI (converted)) was 33.9 µM. It also gave a GI50 (A549; read-out: GI50) of 2.53 µM, a CC50 (A549; [9]) of over 100 µM and a TGI (A549; read-out: TGI) of over 100 µM. It also gave a GI50 (A549; read-out: pGI50 (converted)) of 2.51 µM, a CC50 (A549; [10]) of over 100 µM and a TGI (A549; read-out: pTGI) of over 100 µM. For the same molecule, the GI50 (HT-29; read-out: GI50) was 3.23 µM, the CC50 (HT-29; [9]) was over 100 µM and the TGI (HT-29; read-out: TGI) was over 100 µM. For the same molecule, the GI50 (HT-29; read-out: pGI50 (converted)) was 3.24 µM, the CC50 (HT-29; [10]) was over 100 µM and the TGI (HT-29; read-out: pTGI) was over 100 µM. The GI50 (SK-MEL-2; read-out: GI50) was 2.1 µM, the LC50 (concentration killing 50% of cells) (SK-MEL-2; read-out: LC50) was over 100 µM and the TGI (SK-MEL-2; read-out: TGI) was 5.11 µM. The GI50 (SK-MEL-2; read-out: pGI50 (converted)) was 2.09 µM, the LC50 (concentration killing 50% of cells) (SK-MEL-2; read-out: pLC50 (converted)) was over 100 µM and the TGI (SK-MEL-2; read-out: pTGI (converted)) was 5.13 µM. For the same molecule, the inhibition [7] was 94.6%, the inhibition [8] was 10.5% and the GI50 (PC-3; read-out: GI50) was 1.38 µM. The CC50 (PC-3; [9]) was over 100 µM, the TGI (PC-3; read-out: TGI) was 8.91 µM and the GI50 (PC-3; read-out: pGI50 (converted)) was 1.38 µM. For the same molecule, the CC50 (PC-3; [10]) was over 100 µM, the TGI (PC-3; read-out: pTGI (converted)) was 8.91 µM and the GI50 (KM12; read-out: GI50) was 3.06 µM. It also gave a CC50 (KM12; [9]) of over 100 µM, a TGI (KM12; read-out: TGI) of over 100 µM and a GI50 (KM12; read-out: pGI50 (converted)) of 3.09 µM. It also gave a CC50 (KM12; [10]) of over 100 µM and a TGI (KM12; read-out: pTGI) of over 100 µM.
